Data on 14 substances can be found in publication PMC9178789.

Data set [1] can be described thus: Thioether stapling in folded myoglobin: Cys thiol SN2 on the chloroacetamide of genetically encoded p-chloroacetamido-Phe (pCaaF), loss of HCl; spontaneous during E. coli expression (27 °C overnight) and purification, then overnight incubation at pH ~8.5. The note with it: the molecule shown is the open-chain precursor, aqueous (E. coli cytosol, then KPi buffer adjusted to pH ~8.5), other, scale: % stapled.

Data set [2] in a line: Thioether stapling in folded myoglobin: Cys thiol SN2 on the bromoethyl ether of genetically encoded O-2-bromoethyl tyrosine (O2beY), loss of HBr. The note with it: the molecule shown is the open-chain precursor, aqueous (E. coli expression), other, scale: 1 = efficient/successful stapling, 0.5 = partial, 0 = failed, cited from earlier work.

Take “sperm whale Mb(H64V,V68A) + D20S, G23C, D27A, R118pCaaF”: the ring closure, conversion by HPLC in data set [1] (296-membered ring) worked out at 100.
In data set [1] (269-membered ring), “sperm whale Mb(H64V,V68A) + D27pCaaF, H113C, V114G” showed a ring closure, conversion by HPLC of 100.
As for “sperm whale Mb(H64V,V68A) + G5O2beY, D126C”, in data set [2] (374-membered ring), the ring closure, product found is 1.
In data set [1] (374-membered ring), “sperm whale Mb(H64V,V68A) + G5pCaaF, D126C” displayed a ring closure, conversion by HPLC of 100.
On to “sperm whale Mb(H64V,V68A) + G5pCaaF, H36pCaaF, E109C, D126C”, for which the ring closure, conversion by HPLC in data set [1] is 100.
Still for that read-out and setting: for “sperm whale Mb(H64V,V68A) + G5pCaaF, H36pCaaF, E109C, H113E, D126C” the value was 100.
For the substance “sperm whale Mb(H64V,V68A) + H36O2beY, E109C”, in data set [2] (230-membered ring), the ring closure, product found was 1.
On to “sperm whale Mb(H64V,V68A) + H36pCaaF, E109C”, for which the ring closure, conversion by HPLC in data set [1] (230-membered ring) came out at 78.
On to “sperm whale Mb(H64V,V68A) + K16C, H119A, G121O2beY, D122S”, for which the ring closure, product found in data set [2] (326-membered ring) was 0.
“sperm whale Mb(H64V,V68A) + K16C, H119A, G121pCaaF, D122S”: the ring closure, conversion by HPLC in data set [1] (326-membered ring) came out at 60.
As to “sperm whale Mb(H64V,V68A) + L9R, H12C, D122T, A127O2beY”, in data set [2] (356-membered ring), the ring closure, product found is 1.
Substance “sperm whale Mb(H64V,V68A) + L9R, H12C, D122T, A127pCaaF” had a ring closure, conversion by HPLC in data set [1] (356-membered ring) of 100.
As for “sperm whale Mb(H64V,V68A) + R31O2beY, S35K, E109C”, in data set [2] (245-membered ring), the ring closure, product found is 0.
In data set [1] (245-membered ring), “sperm whale Mb(H64V,V68A) + R31pCaaF, S35K, E109C” registered a ring closure, conversion by HPLC of 100.
